Source: PubChem BioAssay AID1963840 (Molecular Pharmacology Branch, DTP, NCI, 2024)

Tested on: 695427-040-R-J1-PDC complex spheroid viability
Experiment: Anticancer human tumor 695427-040-R-J1-PDC patient-derived colon adenocarcinoma cell line growth inhibition [POLQ]
Settings: for IC50: curve of first compound; for viability, T/C: stronger effect = lower value
In short: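 Complex spheroid viability model combining PDC tumour cells with endothelial (HUVEC) and MSC stromal cells. Novobiocin, ART-558 or RP6685 were tested singly and in combination with standard and investigational anticancer drugs. Each was titrated in half-log steps from near clinical Cmax, or from 10 microM where Cmax was unknown.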

[1] = second compound 0.0316 µM, first compound 0.00316 µM
[2] = second compound 0.0316 µM, first compound 0.01 µM
[3] = second compound 0.0316 µM, first compound 0.0316 µM
[4] = second compound 0.0316 µM, first compound 0.1 µM
[5] = second compound 0.0316 µM, first compound 0.316 µM
[6] = second compound 0.0316 µM, first compound 1 µM
[7] = second compound 0.1 µM, first compound 0.00316 µM
[8] = second compound 0.1 µM, first compound 0.01 µM
[9] = second compound 0.1 µM, first compound 0.0316 µM
[10] = second compound 0.1 µM, first compound 0.1 µM
[11] = second compound 0.1 µM, first compound 0.316 µM
[12] = second compound 0.1 µM, first compound 1 µM
[13] = second compound 0.316 µM, first compound 0.00316 µM
[14] = second compound 0.316 µM, first compound 0.01 µM
[15] = second compound 0.316 µM, first compound 0.0316 µM
[16] = second compound 0.316 µM, first compound 0.1 µM
[17] = second compound 0.316 µM, first compound 0.316 µM
[18] = second compound 0.316 µM, first compound 1 µM
[19] = second compound 1 µM, first compound 0.00316 µM
[20] = second compound 1 µM, first compound 0.01 µM
[21] = second compound 1 µM, first compound 0.0316 µM
[22] = second compound 1 µM, first compound 0.1 µM
[23] = second compound 1 µM, first compound 0.316 µM
[24] = second compound 1 µM, first compound 1 µM
[25] = second compound 3.16 µM, first compound 0.00316 µM
[26] = second compound 3.16 µM, first compound 0.01 µM
[27] = second compound 3.16 µM, first compound 0.0316 µM
[28] = second compound 3.16 µM, first compound 0.1 µM
[29] = second compound 3.16 µM, first compound 0.316 µM
[30] = second compound 3.16 µM, first compound 1 µM
[31] = second compound 10 µM, first compound 0.00316 µM
[32] = second compound 10 µM, first compound 0.01 µM
[33] = second compound 10 µM, first compound 0.0316 µM
[34] = second compound 10 µM, first compound 0.1 µM
[35] = second compound 10 µM, first compound 0.316 µM
[36] = second compound 10 µM, first compound 1 µM
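Also: spheroids exposed to compounds for seven days.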
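For viability, T/C in this document: 100% = DMSO vehicle control viability.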

Compound: C=CCn1c(=O)c2cnc(Nc3ccc(N4CCN(C)CC4)cc3)nc2n1-c1cccc(C(C)(C)O)n1 + Nc1ccc(C#CCN(C(=O)Cc2ncc(C(F)(F)F)cc2C(F)(F)F)c2ccc(F)cc2)nn1
- IC50 (second compound 0.0316 µM): > 1 µM
- IC50 (second compound 0.1 µM): > 1 µM
- IC50 (second compound 0.316 µM): > 1 µM
- IC50 (second compound 1 µM): > 1 µM
- IC50 (second compound 3.16 µM): > 1 µM
- IC50 (second compound 10 µM): > 1 µM
- viability, T/C [1]: 101%
- viability, T/C [2]: 99.5%
- viability, T/C [3]: 112%
- viability, T/C [4]: 101%
- viability, T/C [5]: 96.7%
- viability, T/C [6]: 74.6%
- viability, T/C [7]: 106%
- viability, T/C [8]: 101%
- viability, T/C [9]: 94.8%
- viability, T/C [10]: 96.9%
- viability, T/C [11]: 99.9%
- viability, T/C [12]: 78%
- viability, T/C [13]: 113%
- viability, T/C [14]: 107%
- viability, T/C [15]: 101%
- viability, T/C [16]: 97.7%
- viability, T/C [17]: 91.4%
- viability, T/C [18]: 81%
- viability, T/C [19]: 104%
- viability, T/C [20]: 96%
- viability, T/C [21]: 96.4%
- viability, T/C [22]: 94.2%
- viability, T/C [23]: 93.8%
- viability, T/C [24]: 71.7%
- viability, T/C [25]: 98.6%
- viability, T/C [26]: 101%
- viability, T/C [27]: 107%
- viability, T/C [28]: 98.7%
- viability, T/C [29]: 85.8%
- viability, T/C [30]: 74.2%
- viability, T/C [31]: 91.8%
- viability, T/C [32]: 93.7%
- viability, T/C [33]: 85.8%
- viability, T/C [34]: 99.4%
- viability, T/C [35]: 81.8%
- viability, T/C [36]: 65.3%

Compound: CC[C@@]1(O)C(=O)OCc2c1cc1n(c2=O)Cc2cc3c(CN(C)C)c(O)ccc3nc2-1 + Nc1ccc(C#CCN(C(=O)Cc2ncc(C(F)(F)F)cc2C(F)(F)F)c2ccc(F)cc2)nn1
- IC50 (second compound 0.0316 µM): > 0.1 µM
- IC50 (second compound 0.1 µM): > 0.1 µM
- IC50 (second compound 0.316 µM): > 0.1 µM
- IC50 (second compound 1 µM): > 0.1 µM
- IC50 (second compound 3.16 µM): > 0.1 µM
- IC50 (second compound 10 µM): > 0.1 µM
- viability, T/C (second compound 0.0316 µM, first compound 0.000316 µM): 110%
- viability, T/C (second compound 0.0316 µM, first compound 0.001 µM): 111%
- viability, T/C [1]: 102%
- viability, T/C [2]: 102%
- viability, T/C [3]: 115%
- viability, T/C [4]: 109%
- viability, T/C (second compound 0.1 µM, first compound 0.000316 µM): 114%
- viability, T/C (second compound 0.1 µM, first compound 0.001 µM): 105%
- viability, T/C [7]: 104%
- viability, T/C [8]: 100%
- viability, T/C [9]: 107%
- viability, T/C [10]: 103%
- viability, T/C (second compound 0.316 µM, first compound 0.000316 µM): 109%
- viability, T/C (second compound 0.316 µM, first compound 0.001 µM): 102%
- viability, T/C [13]: 108%
- viability, T/C [14]: 97.7%
- viability, T/C [15]: 108%
- viability, T/C [16]: 101%
- viability, T/C (second compound 1 µM, first compound 0.000316 µM): 100%
- viability, T/C (second compound 1 µM, first compound 0.001 µM): 97.8%
- viability, T/C [19]: 105%
- viability, T/C [20]: 109%
- viability, T/C [21]: 110%
- viability, T/C [22]: 103%
- viability, T/C (second compound 3.16 µM, first compound 0.000316 µM): 107%
- viability, T/C (second compound 3.16 µM, first compound 0.001 µM): 111%
- viability, T/C [25]: 102%
- viability, T/C [26]: 107%
- viability, T/C [27]: 114%
- viability, T/C [28]: 103%
- viability, T/C (second compound 10 µM, first compound 0.000316 µM): 99.5%
- viability, T/C (second compound 10 µM, first compound 0.001 µM): 98.3%
- viability, T/C [31]: 103%
- viability, T/C [32]: 89.4%
- viability, T/C [33]: 95.3%
- viability, T/C [34]: 93.9%

Compound: CNCc1ccc(-c2[nH]c3cc(F)cc4c3c2CCNC4=O)cc1 + Nc1ccc(C#CCN(C(=O)Cc2ncc(C(F)(F)F)cc2C(F)(F)F)c2ccc(F)cc2)nn1
- IC50 (second compound 0.0316 µM): > 10 µM
- IC50 (second compound 0.1 µM): > 10 µM
- IC50 (second compound 0.316 µM): > 10 µM
- IC50 (second compound 1 µM): > 10 µM
- IC50 (second compound 3.16 µM): > 10 µM
- IC50 (second compound 10 µM): > 10 µM
- viability, T/C [3]: 101%
- viability, T/C [4]: 101%
- viability, T/C [5]: 106%
- viability, T/C [6]: 108%
- viability, T/C (second compound 0.0316 µM, first compound 3.16 µM): 110%
- viability, T/C (second compound 0.0316 µM, first compound 10 µM): 107%
- viability, T/C [9]: 114%
- viability, T/C [10]: 110%
- viability, T/C [11]: 104%
- viability, T/C [12]: 104%
- viability, T/C (second compound 0.1 µM, first compound 3.16 µM): 118%
- viability, T/C (second compound 0.1 µM, first compound 10 µM): 109%
- viability, T/C [15]: 119%
- viability, T/C [16]: 102%
- viability, T/C [17]: 96.1%
- viability, T/C [18]: 104%
- viability, T/C (second compound 0.316 µM, first compound 3.16 µM): 115%
- viability, T/C (second compound 0.316 µM, first compound 10 µM): 104%
- viability, T/C [21]: 117%
- viability, T/C [22]: 94%
- viability, T/C [23]: 98.1%
- viability, T/C [24]: 103%
- viability, T/C (second compound 1 µM, first compound 3.16 µM): 112%
- viability, T/C (second compound 1 µM, first compound 10 µM): 107%
- viability, T/C [27]: 103%
- viability, T/C [28]: 111%
- viability, T/C [29]: 97.2%
- viability, T/C [30]: 112%
- viability, T/C (second compound 3.16 µM, first compound 3.16 µM): 113%
- viability, T/C (second compound 3.16 µM, first compound 10 µM): 118%
- viability, T/C [33]: 105%
- viability, T/C [34]: 98.6%
- viability, T/C [35]: 92.3%
- viability, T/C [36]: 105%
- viability, T/C (second compound 10 µM, first compound 3.16 µM): 105%
- viability, T/C (second compound 10 µM, first compound 10 µM): 102%
